Data on seven compounds can be found in publication PMC6271423, “Synthesis and Biological Evaluation of New Pyridone-Annelated Isoindigos as Anti-Proliferative Agents” (Molecules, 2014).

SMILES strings stand for the structures.

In data set [1] the test system is K562 cells. The data set can be described thus: MTT cell viability (antiproliferative) assay in K562 cells. The format is cell-based, human. Particulars: for cytotoxicity / antiproliferative activity to K562 cells (in words): 0.0 to 30.0 µM, 24 h; for IC50: Homo sapiens. The method, then:
The antiproliferative activities of the synthesized molecules were initially evaluated in human chronic […] leukemia cells K562. The effect of the six derivatives on the viability of K562 was assessed by an MTT assay as described in the methods. In all MTT tests performed, the known antiproliferative agent etoposide was used as a positive control to validate the accuracy of the assay.
Figure 2 The isoindigo compounds 3b and 3d inhibit the growth of K562 cells in a dose- and time-dependent manner. (A) K562 cells were treated with varying concentrations of compounds 3a to 3f (0.0 to 30.0 µM) for 24 h and the antiproliferative activity was analyzed by MTT assay as described in the methods. (B) K562 cells were incubated with 12.0 µM of either compound 3b or 3d for different periods of time (0 to 72 h) and cell viability was assessed by the MTT assay. The controls (in the presence or absence of the solvent vehicle DMSO) represent cells incubated under similar conditions in the absence of the test compound. The percentage of cell viability in each sample was expressed relative to untreated control, which was considered as a 100%. K562 cells were also treated with 4.0, 8.0 and 12.0 µM etoposide under similar conditions as positive controls. The results shown represent the mean ± SD of three independent trials.
Figure 3 The IC50 values of compounds 3b and 3d determined in K562 cells at different time points. K562 cells were treated with varying concentrations of compounds 3b or 3d (0.0 to 40.0 µM) for different periods of time (24, 48 and 72 h) and their antiproliferative activity was analyzed by MTT viability assay. The sigmoidal curves shown were obtained by plotting the percentages of viability (mean ± SD of three independent experiments, three replicates for each concentration in every experiment were used) versus logarithmic molar concentrations of the test compounds at the three different time points, and the IC50 value was determined using a non-linear regression analysis of GraphPad Prism 6 software.
The human chronic myelogenous leukemia K562 (ATCC® CCL-243^TM) and human acute monocytic leukemia THP-1 (ATCC® TIB-202^TM) suspension cells were maintained in RPMI-1640, while adherent HepG2 (human hepatocellular carcinoma, ATCC® HB-8065^TM), MCF7 (human breast adenocarcinoma, ATCC® HTB-22^TM) were cultured in DMEM medium. Adherent Caco-2 (human colorectal adenocarcinoma, ATCC® HTB-37^TM), HEK-293 (human embryonic epithelial cells, ATCC® CRL-1573^TM) and L-929 (mouse subcutaneous connective tissue fibroblast, ATCC® CCL-1^TM) cells were cultured in MEM medium. The media were supplemented with 10% (v/v) heat inactivated FBS, penicillin G (100 U/mL) and streptomycin ([…]), and cells were incubated at 37 °C in a 5% CO2 humidified incubator. The media were changed every 2–3 days and subcultured when the cell population density reached to 70%–80% confluence. Cells were seeded at an appropriate density according to each experimental design.
The antiproliferative activity of the synthesized compounds was assessed using the MTT cell viability assay. Briefly, 2 × 10^4 of the non-adherent K562 or THP-1 cells, in a 100 μL of RPMI-1640 medium, or […] of adherent HepG2, MCF-7, Caco-2, HEK-293 or L-929, in a same volume of the proper media, were seeded in each well of a 96 well-plate. After 24 h, the media was removed by aspiration and replaced by fresh media containing the test compound at varying concentrations (0.0 to 40.0 µM, for cancerous cells) or (0.0 to 80.0 µM, for noncancerous cells), and incubated for the desired time in a 5% CO2-cell culture incubator. Alternatively, cultured K562 cells were incubated with 12.0 µM of the test compound for different time-points (0, 2, 4, 8, 12, 24, 48 and 72 h) before analysis. […]

Data set [2] deals with MCF-7 cells. The data set can be described thus: MTT cell viability (antiproliferative) assay in MCF-7 cells. The format is cell-based. Conditions: Homo sapiens, MCF7, 48 h incubation. The text has this: (§1) In addition to the effect on K562 cells, we have also evaluated the potential antiproliferative activities of compounds 3b and 3d on different hematological and solid tumor cell lines. […] To further characterize the cytotoxicity of compounds 3b and 3d, we evaluated their effects on inducing apoptosis of the cultured K562 cells (Figure 5).
(§2) Figure 4 Compounds 3b and 3d inhibit the growth of various hematological and solid tumor cell lines but not noncancerous cells at low IC50 values. […]
(§3) The antiproliferative activity of the synthesized compounds was assessed using the MTT cell viability assay. […] Absorbance was measured within 60 min at 595 nm using an E Max Precision Microplate reader (Molecular Devices, Sunnyvale, CA, USA). Cell viability at a given concentration was determined from the following expression: Percentage Viability = (Atest compound − Ablank/Acontrol − Ablank) × 100 (1) where Atest compound = absorbance of wells with cells exposed to test compound in media; Acontrol = absorbance of wells with cells in media and Ablank = absorbance of wells with DMSO only, without cells. […]

Data set [3] deals with HepG2 cells. Description: MTT cell viability (antiproliferative) assay in HepG2 cells. Format: cell-based. Particulars: Homo sapiens, 48 h incubation.
Description: as §1, §2, §3

Data set [4] relates to THP-1 cells. Description: MTT cell viability (antiproliferative) assay in THP-1 cells. The format is cell-based. Particulars: Homo sapiens, 48 h incubation.
Description: as §1, §2, §3

The test system of data set [5] is L-929 cells. Description: MTT cell viability assay in noncancerous L-929 fibroblasts. The format is cell-based. Particulars: Mus musculus, L929, 48 h incubation.
Description: as §1, §2, §3
Background: Tetrazolium assays rely on reduction of a dye to a coloured formazan, in cell work by metabolically active cells.

Data set [6] relates to Caco-2 cells. Description: MTT cell viability (antiproliferative) assay in Caco-2 cells. Format: cell-based. Conditions: Homo sapiens, 48 h incubation.
Description: as §1, §2, §3

The subject of data set [7] is HEK-293 cells. The data set can be described thus: MTT cell viability assay in noncancerous HEK-293 cells. Format: cell-based. Particulars: Homo sapiens, HEK293, 48 h incubation.
Description: as §1, §2, §3

On the set-up of data set [8]: method as in PMID 16330129. Conditions: cited from earlier work.

Take `CCn1cc(C(=O)O)c(=O)c2c3c(ccc21)NC(=O)/C3=C1/C(=O)Nc2cc(Cl)ccc21` [3c, (E)-1-(6'-Chloro-2'-oxoindolin-3'-ylidene)-6-ethyl-2,3,6,9-tetrahydro-2,9-dioxo-1H-pyrrolo[3,2-f]quinoline-8-carboxylic acid]: the melting point (as a rule, the temperature of the solid-liquid transition) was over 300 °C. In addition, the “cytotoxicity / antiproliferative activity to K562 cells (in words)” value in data set [1] is recorded as “significantly abolished the cytotoxicity”.
Turning to `CCn1cc(C(=O)O)c(=O)c2c3c(ccc21)NC(=O)/C3=C1/C(=O)Nc2ccc(Br)cc21` [3d, (E)-1-(5'-Bromo-2'-oxoindolin-3'-ylidene)-6-ethyl-2,3,6,9-tetrahydro-2,9-dioxo-1H-pyrrolo[3,2-f]quinoline-8-carboxylic acid], the IC50 (as a rule, the midpoint of a concentration-inhibition curve) is 15.7 ± 1.94 µM in data set [2]; 13.9 ± 2.01 µM in data set [3]; 9.1 ± 1 µM in [4]; 71.9 ± 5.22 µM in data set [5]; 19.1 ± 1.8 µM in data set [1] (K562, 24 h incubation); 8.66 ± 0.81 µM in data set [1] (K562, 48 h incubation). The IC50 in [1] (K562, 72 h incubation) is 6.92 ± 0.84 µM; in [6], 19 ± 1.37 µM; in data set [7], 52.5 ± 4.7 µM. Besides, the “cytotoxicity / antiproliferative activity to K562 cells (in words)” value in [1] is on record as “significant dose-dependent cytotoxicity”.
For the compound `CCn1cc(C(=O)O)c(=O)c2c3c(ccc21)NC(=O)/C3=C1/C(=O)Nc2cc(Br)ccc21` [3e, (E)-1-(6'-Bromo-2'-oxoindolin-3'-ylidene)-6-ethyl-2,3,6,9-tetrahydro-2,9-dioxo-1H-pyrrolo[3,2-f]quinoline-8-carboxylic acid], the melting point is over 300 °C. In addition, the “cytotoxicity / antiproliferative activity to K562 cells (in words)” value in [1] is “significantly abolished the cytotoxicity”.
Turning to `CC(=O)OC1COC(N2C(=O)C(=C3C(=O)Nc4ccccc43)c3ccccc32)C(OC(C)=O)C1OC(C)=O` [Natura^TM, 1-(β-D-triacetylxylopyranosyl) isoindigo], the “solubility in water (in words)” value in data set [8] is given as “almost completely insoluble in water”.
For `CCn1cc(C(=O)O)c(=O)c2c3c(ccc21)NC(=O)/C3=C1/C(=O)Nc2ccc(Cl)cc21` [3b, (E)-1-(5'-Chloro-2'-oxoindolin-3'-ylidene)-6-ethyl-2,3,6,9-tetrahydro-2,9-dioxo-1H-pyrrolo[3,2-f]quinoline-8-carboxylic acid], the half-inhibitory concentration (IC50) in data set [2] is 11.9 ± 0.67 µM; in data set [3] it was 8.97 ± 0.84 µM; in data set [4], 8.21 ± 0.62 µM; in data set [5] it was 40.4 ± 3.15 µM; in data set [1] (K562, 24 h incubation) it was 15.1 ± 1.27 µM; in data set [1] (K562, 48 h incubation), 6.6 ± 0.58 µM. Also, the half-maximal inhibitory concentration (IC50) in [1] (K562, 72 h incubation) was 4.02 ± 0.52 µM; in data set [6] it was 14.6 ± 1.32 µM; in data set [7], 30.7 ± 2.52 µM. For the same compound, the “cytotoxicity / antiproliferative activity to K562 cells (in words)” value in [1] was “significant dose-dependent cytotoxicity”.
`CCn1cc(C(=O)O)c(=O)c2c3c(ccc21)NC(=O)/C3=C1/C(=O)Nc2ccccc21` [3a, (E)-6-Ethyl-2,9-dioxo-1-(2'-oxoindolin-3'-ylidene)-2,3,6,9-tetrahydro-1H-pyrrolo[3,2-f]quinoline-8-carboxylic acid] returned a melting point of over 300 °C. Further, the “cytotoxicity / antiproliferative activity to K562 cells (in words)” value in [1] was “significantly inhibited their antiproliferative activities”.
The matching figures for `CCn1cc(C(=O)O)c(=O)c2c3c(ccc21)NC(=O)/C3=C1/C(=O)Nc2ccc([N+](=O)[O-])cc21` [3f, (E)-6-Ethyl-1-(5'-nitro-2'-oxoindolin-3'-ylidene)-2,9-dioxo-2,3,6,9-tetrahydro-1H-pyrrolo[3,2-f]quinoline-8-carboxylic acid]: over 300 °C and “significantly inhibited their antiproliferative activities”.
